Structures are written as SMILES. pIC50: −log10 of the molar value.

For the assay, the target named is T1, Human Cav2.2 channels (Homo sapiens, UniProt Q00975).
T1 construct: expressed in transfected cells
The assay is described as follows: Fluorescent assay for Cav2.2 channels using potassium depolarization to initiate channel opening. Type of assay: cell-based. Particulars: for inhibition at 10 µM: 10 μM compound, read-out: Cav 2.2 Activity % Inh at 10 μM; for inhibition at 30 µM: 30 μM compound, read-out: Cav 2.2 Activity % Inh at 30 μM; for pIC50: 30 mM K (block of open and inactivated channels), read-out: Cav 2.2 Activity IC50 at 30 mM K. The procedure, abridged: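 HEK293 cells stably expressing human Cav2.2 with alpha2-delta and beta subunits plus Kir2.3, dye-loaded, then held 30 min at 25° C. in 4, 12, 25 or 30 mM K+ pre-polarization buffer with compound.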

T1 sequence (Q00975 whole entry): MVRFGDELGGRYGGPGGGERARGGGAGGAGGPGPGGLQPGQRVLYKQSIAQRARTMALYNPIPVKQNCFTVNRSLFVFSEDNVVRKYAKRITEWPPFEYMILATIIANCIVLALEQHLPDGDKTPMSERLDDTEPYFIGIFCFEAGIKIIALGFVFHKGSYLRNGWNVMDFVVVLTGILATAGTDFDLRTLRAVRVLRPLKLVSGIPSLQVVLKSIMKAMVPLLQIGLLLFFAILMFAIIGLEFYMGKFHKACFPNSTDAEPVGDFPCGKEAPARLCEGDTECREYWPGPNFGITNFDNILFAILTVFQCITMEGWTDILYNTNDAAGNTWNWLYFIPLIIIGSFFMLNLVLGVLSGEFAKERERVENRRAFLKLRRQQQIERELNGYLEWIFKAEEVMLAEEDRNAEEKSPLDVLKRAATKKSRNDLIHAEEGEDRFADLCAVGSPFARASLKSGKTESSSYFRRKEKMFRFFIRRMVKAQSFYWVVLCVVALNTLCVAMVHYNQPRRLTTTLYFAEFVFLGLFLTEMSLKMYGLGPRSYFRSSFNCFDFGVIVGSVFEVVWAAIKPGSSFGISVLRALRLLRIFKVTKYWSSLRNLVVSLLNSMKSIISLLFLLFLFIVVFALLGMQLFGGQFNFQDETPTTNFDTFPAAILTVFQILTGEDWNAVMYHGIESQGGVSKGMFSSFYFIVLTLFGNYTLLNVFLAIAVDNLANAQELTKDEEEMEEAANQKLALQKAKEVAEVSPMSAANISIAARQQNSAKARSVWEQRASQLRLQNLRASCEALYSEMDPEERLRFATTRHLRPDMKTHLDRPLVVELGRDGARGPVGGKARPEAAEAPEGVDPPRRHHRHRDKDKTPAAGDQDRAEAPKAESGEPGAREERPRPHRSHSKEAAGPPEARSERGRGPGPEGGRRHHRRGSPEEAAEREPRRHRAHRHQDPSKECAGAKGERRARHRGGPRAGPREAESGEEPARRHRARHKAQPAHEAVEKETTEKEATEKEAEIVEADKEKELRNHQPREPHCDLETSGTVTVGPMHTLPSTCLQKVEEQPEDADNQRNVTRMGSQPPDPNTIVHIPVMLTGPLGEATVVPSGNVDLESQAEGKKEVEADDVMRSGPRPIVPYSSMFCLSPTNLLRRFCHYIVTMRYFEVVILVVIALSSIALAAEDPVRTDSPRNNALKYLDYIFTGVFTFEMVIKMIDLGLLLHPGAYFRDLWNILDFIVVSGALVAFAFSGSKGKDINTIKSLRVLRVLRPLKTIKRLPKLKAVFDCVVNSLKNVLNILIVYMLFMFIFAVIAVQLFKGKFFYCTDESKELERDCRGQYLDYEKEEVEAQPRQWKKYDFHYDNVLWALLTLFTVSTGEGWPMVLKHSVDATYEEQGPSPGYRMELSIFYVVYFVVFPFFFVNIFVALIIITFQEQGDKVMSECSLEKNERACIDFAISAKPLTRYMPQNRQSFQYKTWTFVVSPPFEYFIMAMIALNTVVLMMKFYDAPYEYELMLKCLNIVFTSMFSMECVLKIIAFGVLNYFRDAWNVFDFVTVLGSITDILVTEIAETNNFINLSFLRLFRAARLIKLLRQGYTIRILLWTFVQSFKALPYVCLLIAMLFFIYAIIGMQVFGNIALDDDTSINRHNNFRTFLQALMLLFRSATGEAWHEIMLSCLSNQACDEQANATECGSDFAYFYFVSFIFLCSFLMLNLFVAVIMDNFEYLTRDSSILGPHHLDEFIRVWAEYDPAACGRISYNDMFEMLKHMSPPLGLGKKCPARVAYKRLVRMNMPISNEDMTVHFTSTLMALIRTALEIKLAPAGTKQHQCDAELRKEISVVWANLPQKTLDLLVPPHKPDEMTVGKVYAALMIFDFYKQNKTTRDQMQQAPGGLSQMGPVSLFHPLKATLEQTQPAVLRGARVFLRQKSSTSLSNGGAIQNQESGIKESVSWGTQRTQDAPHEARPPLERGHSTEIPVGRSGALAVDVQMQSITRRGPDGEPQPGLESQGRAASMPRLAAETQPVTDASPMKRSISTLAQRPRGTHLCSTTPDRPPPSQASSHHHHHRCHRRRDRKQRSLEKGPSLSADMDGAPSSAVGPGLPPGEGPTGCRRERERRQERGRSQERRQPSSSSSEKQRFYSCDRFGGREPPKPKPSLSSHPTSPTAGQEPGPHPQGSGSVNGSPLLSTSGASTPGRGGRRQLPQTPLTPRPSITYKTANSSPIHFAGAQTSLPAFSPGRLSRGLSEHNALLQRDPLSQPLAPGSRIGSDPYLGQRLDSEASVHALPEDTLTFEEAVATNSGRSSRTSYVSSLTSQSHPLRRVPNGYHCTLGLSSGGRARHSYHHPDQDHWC
T1 sequence (P54289 25-1103 partner): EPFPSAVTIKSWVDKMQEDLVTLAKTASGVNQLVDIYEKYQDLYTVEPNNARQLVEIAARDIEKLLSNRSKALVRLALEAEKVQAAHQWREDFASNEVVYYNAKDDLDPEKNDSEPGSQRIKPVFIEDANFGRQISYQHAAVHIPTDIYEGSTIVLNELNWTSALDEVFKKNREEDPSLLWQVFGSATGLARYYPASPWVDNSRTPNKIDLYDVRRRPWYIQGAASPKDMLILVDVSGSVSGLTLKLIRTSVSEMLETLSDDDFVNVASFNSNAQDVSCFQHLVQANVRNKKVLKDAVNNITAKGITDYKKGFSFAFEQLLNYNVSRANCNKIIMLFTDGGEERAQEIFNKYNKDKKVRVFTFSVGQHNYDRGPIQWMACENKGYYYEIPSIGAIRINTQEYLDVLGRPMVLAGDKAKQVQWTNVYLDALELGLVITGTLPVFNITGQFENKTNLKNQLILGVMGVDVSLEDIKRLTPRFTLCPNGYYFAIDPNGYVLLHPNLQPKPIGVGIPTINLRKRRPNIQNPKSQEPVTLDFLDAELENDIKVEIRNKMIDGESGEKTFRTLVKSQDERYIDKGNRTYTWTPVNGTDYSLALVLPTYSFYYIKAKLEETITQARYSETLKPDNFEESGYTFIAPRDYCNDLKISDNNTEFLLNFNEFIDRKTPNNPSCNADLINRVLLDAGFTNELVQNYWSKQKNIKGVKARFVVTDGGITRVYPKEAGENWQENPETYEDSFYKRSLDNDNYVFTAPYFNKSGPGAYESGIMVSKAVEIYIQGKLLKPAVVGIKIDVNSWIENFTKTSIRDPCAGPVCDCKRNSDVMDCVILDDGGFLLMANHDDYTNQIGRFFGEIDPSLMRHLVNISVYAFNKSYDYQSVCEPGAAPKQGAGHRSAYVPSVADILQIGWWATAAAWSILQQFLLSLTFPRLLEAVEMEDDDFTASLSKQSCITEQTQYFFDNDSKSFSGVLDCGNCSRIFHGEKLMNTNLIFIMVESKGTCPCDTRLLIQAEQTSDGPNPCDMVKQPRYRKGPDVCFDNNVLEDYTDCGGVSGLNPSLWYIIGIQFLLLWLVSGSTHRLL
T1 sequence (P54284 whole entry partner): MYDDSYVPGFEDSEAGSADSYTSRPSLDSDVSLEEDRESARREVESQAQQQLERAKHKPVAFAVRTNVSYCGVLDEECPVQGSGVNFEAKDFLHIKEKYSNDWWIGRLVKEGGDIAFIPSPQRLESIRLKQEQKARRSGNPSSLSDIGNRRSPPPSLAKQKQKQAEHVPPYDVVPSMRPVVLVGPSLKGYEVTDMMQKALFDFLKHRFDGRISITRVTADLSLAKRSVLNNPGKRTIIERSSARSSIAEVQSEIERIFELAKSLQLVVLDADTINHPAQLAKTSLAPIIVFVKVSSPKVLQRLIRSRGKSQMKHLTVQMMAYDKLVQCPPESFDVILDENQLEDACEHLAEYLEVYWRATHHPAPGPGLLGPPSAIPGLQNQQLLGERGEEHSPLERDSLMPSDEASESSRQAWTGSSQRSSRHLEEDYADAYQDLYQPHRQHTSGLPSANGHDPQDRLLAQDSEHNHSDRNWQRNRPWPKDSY

What is called pIC50 is the negative decadic logarithm of the IC50, by convention in mol/L. `COc1c(C(C)(C)C)cc(C(=O)NC2(C(=O)NCc3nccs3)CCCCC2)cc1C(C)(C)C` [Compound 87, 3,5-di-tert-butyl-4-methoxy-N-(1-(thiazol-2-ylmethylcarbamoyl)cyclohexyl)benzamide]: the inhibition at 10 µM turned out to be 102%, the inhibition at 30 µM turned out to be 104% and the negative-log IC50 (pIC50) was 8.22.

On to `CC(C)(C)c1cc(NC(=O)C2(NCc3ccc(F)cc3F)CCCCC2)cc(C(C)(C)C)c1` [Compound 42, N-(3,5-di-tert-butylphenyl)-1-(2,4-difluorobenzylamino)cyclohexanecarboxamide], for which the inhibition at 10 µM turned out to be 70.6% and the inhibition at 30 µM was determined as 80.2%.

`COc1ccc(CNC(=O)C2(NC(=O)c3cc(C(C)(C)C)c(O)c(C(C)(C)C)c3)CC2)cc1` [Compound 109, 3,5-di-tert-butyl-4-hydroxy-N-(1-(4-methoxybenzylcarbamoyl)cyclopropyl)benzamide]: the inhibition at 10 µM came out at 29.8%, the inhibition at 30 µM amounted to 40% and the pIC50 is 7.06.

Turning to `CN(C)c1cccc(CNC(=O)C2(NC(=O)c3cc(C(C)(C)C)nc(C(C)(C)C)c3)CCOCC2)c1` [Compound 25, 2,6-di-tert-butyl-N-(4-(3-(dimethylamino)benzylcarbamoyl)tetrahydro-2H-pyran-4-yl)isonicotinamide], the inhibition at 10 µM is 70.5% and the pIC50 was 7.06.

`CC(C)(C)c1cc(C(=O)NC2(C(=O)N3CCOCC3)CCCCC2)cc(C(C)(C)C)n1` [Compound 98, 2,6-di-tert-butyl-N-(1-(morpholine-4-carbonyl)cyclohexyl)isonicotinamide]: the pIC50 was 6.61.

For the compound `CC(C)(C)c1cc(C(=O)NC2(C(=O)NCc3ccccc3)CCCCC2)cc(C(C)(C)C)n1` [Compound 56, N-(1-(benzylcarbamoyl)cyclohexyl)-2,6-di-tert-butylisonicotinamide], the inhibition at 10 µM is 84.4%, the inhibition at 30 µM was found to be 92.6% and the pIC50 was 6.49.

For `COc1c(C(C)(C)C)cc(C(=O)NC2(C(=O)NCc3cnc(C)cn3)CCN(C(=O)OC(C)(C)C)CC2)cc1C(C)(C)C` [Compound 22, tert-butyl 4-(3,5-di-tert-butyl-4-methoxybenzamido)-4-((5-methylpyrazin-2-yl)methylcarbamoyl)piperidine-1-carboxylate], the inhibition at 10 µM turned out to be 95.1% and the pIC50 is 6.40.

As for `CC(C)(C#N)c1cc(C(=O)NC2(C(=O)NCc3cccc(C(F)(F)F)c3)CCCCC2)ccn1` [Compound 119, 2-(2-cyanopropan-2-yl)-N-(1-(3-(trifluoromethyl)benzylcarbamoyl)cyclohexyl)isonicotinamide], the inhibition at 10 µM was 63.1%.

As to `COc1c(C(C)(C)C)cc(C(=O)NC2(C(=O)Nc3ccccc3)CCCCC2)cc1C(C)(C)C` [Compound 96, 3,5-di-tert-butyl-4-methoxy-N-(1-(phenylcarbamoyl)cyclohexyl)benzamide], the inhibition at 10 µM was determined as 77.7%, the inhibition at 30 µM came to 82.6% and the pIC50 was 6.79.

With `COc1ccc(CNC(=O)C2(NC(=O)c3cc(C(C)(C)C)cc(C(C)(C)C)c3)CCCCC2)cc1` [Compound 45, 3,5-di-tert-butyl-N-(1-(4-methoxybenzylcarbamoyl)cyclohexyl)benzamide], the inhibition at 10 µM stood at 95.7%, the inhibition at 30 µM amounted to 99.5% and the pIC50 is 7.60.

Take `CC(C)(C(N)=O)c1cccc(C(=O)NC2(C(=O)NCc3cccc(C(F)(F)F)c3)CCCCC2)c1` [Compound 121, 3-(1-amino-2-methyl-1-oxopropan-2-yl)-N-(1-(3-(trifluoromethyl)benzylcarbamoyl)cyclohexyl)benzamide]: the inhibition at 10 µM was found to be 18.6% and the inhibition at 30 µM is 70.8%.

`CC(C)(C)c1cc(C(=O)NC2(C(=O)Nc3ccccn3)CC2)cc(C(C)(C)C)c1O` [Compound 4, 3,5-di-tert-butyl-4-hydroxy-N-(1-(pyridin-2-ylcarbamoyl)cyclopropyl)benzamide]: the inhibition at 10 µM turned out to be 68%, the inhibition at 30 µM was 76% and the pIC50 is 6.45.

As to `CC(C)(C)c1cc(C(=O)NC2(C(=O)NCc3cccc(C(F)(F)F)c3)CCCCC2)cc(C(C)(C)C)c1` [Compound 62, 3,5-di-tert-butyl-N-(1-(3-(trifluoromethyl)benzylcarbamoyl)cyclohexyl)benzamide], the inhibition at 10 µM was 94.3%, the inhibition at 30 µM came to 88.1% and the pIC50 was 7.00.

As for `CC(C)(C)c1cc(C(=O)NC2(C(=O)NCc3ccc(F)cc3F)CCCCC2)cc(C(C)(C)C)c1` [Compound 50, 3,5-di-tert-butyl-N-(1-(2,4-difluorobenzylcarbamoyl)cyclohexyl)benzamide], the inhibition at 10 µM worked out at 99.6%, the inhibition at 30 µM was 102% and the pIC50 is 7.10.

As to `COc1c(C(C)(C)C)cc(C(=O)NC2(C(=O)NCc3ccc(N(C)C)cc3)CCCCC2)cc1C(C)(C)C` [Compound 84, 3,5-di-tert-butyl-N-(1-(4-(dimethylamino)benzylcarbamoyl)cyclohexyl)-4-methoxybenzamide], the inhibition at 10 µM is 25.6% and the inhibition at 30 µM stood at 53.5%.

As for `COc1ccc(CNC(=O)C2(NC(=O)c3cc(C(C)(C)C#N)cc(C(C)(C)C#N)c3)CCOCC2)cc1` [Compound 115, 4-(3,5-bis(2-cyanopropan-2-yl)benzamido)-N-(4-methoxybenzyl)tetrahydro-2H-pyran-4-carboxamide], the inhibition at 10 µM stood at 53.5% and the inhibition at 30 µM is 73.4%.

As to `Cc1cc(CNC(=O)C2(NC(=O)c3cc(C(C)(C)C)nc(C(C)(C)C)c3)CCCCC2)nn1C` [Compound 78, 2,6-di-tert-butyl-N-(1-((1,5-dimethyl-1H-pyrazol-3-yl)methylcarbamoyl)cyclohexyl)isonicotinamide], the inhibition at 10 µM was 79.5%, the inhibition at 30 µM is 88.6% and the pIC50 is 7.61.

With `COc1ccc(C(=O)NC2(C(=O)NCc3cc(C(C)(C)C)c(OC)c(C(C)(C)C)c3)CCCCC2)cc1` [Compound 74, N-(1-(3,5-di-tert-butyl-4-methoxybenzylcarbamoyl)cyclohexyl)-4-methoxybenzamide], the inhibition at 10 µM is 98.9%, the inhibition at 30 µM was determined as 106% and the pIC50 was 7.25.

Turning to `CC(C)(C)c1cc(C(=O)NC2(C(=O)NCCCN3CCOCC3)CCCCC2)cc(C(C)(C)C)n1` [Compound 99, 2,6-di-tert-butyl-N-(1-(3-morpholinopropylcarbamoyl)cyclohexyl)isonicotinamide], the pIC50 was 6.15.

For `CC(C)(C)c1cc(C(=O)NC2(C(=O)NCc3ccc(F)cc3)CCCCC2)cc(C(C)(C)C)c1` [Compound 49, 3,5-di-tert-butyl-N-(1-(4-fluorobenzylcarbamoyl)cyclohexyl)benzamide], the inhibition at 10 µM was found to be 103%, the inhibition at 30 µM was 91.6% and the pIC50 was 7.35.

Regarding `COc1c(C(C)(C)C)cc(C(=O)NC2(C(=O)N3CCCC3)CCCCC2)cc1C(C)(C)C` [Compound 30, 3,5-di-tert-butyl-4-methoxy-N-(1-(pyrrolidine-1-carbonyl)cyclohexyl)benzamide], the inhibition at 10 µM turned out to be 91.7%, the inhibition at 30 µM was determined as 93.4% and the pIC50 is 7.60.

Take `CC(C)(C#N)c1cc(C(=O)NC2(C(=O)NCc3ccccc3)CCCCC2)cc(C(C)(C)C#N)c1` [Compound 41, N-(1-(benzylcarbamoyl)cyclohexyl)-3,5-bis(2-cyanopropan-2-yl)benzamide]: the inhibition at 10 µM is 76%, the inhibition at 30 µM was found to be 73.3% and the pIC50 is 6.01.

Turning to `CN1CCN(C(=O)C2(NC(=O)c3cc(C(C)(C)C)nc(C(C)(C)C)c3)CCCC2)CC1` [Compound 93, 2,6-di-tert-butyl-N-(1-(4-methylpiperazine-1-carbonyl)cyclopentyl)isonicotinamide], the inhibition at 10 µM turned out to be 83.9%, the inhibition at 30 µM worked out at 85.5% and the pIC50 is 6.07.

As to `Cc1cc(CNC(=O)C2(NC(=O)c3cc(C(C)(C)C)cc(C(C)(C)C)c3)CCCCC2)nn1C` [Compound 68, 3,5-di-tert-butyl-N-(1-((1,5-dimethyl-1H-pyrazol-3-yl)methylcarbamoyl)cyclohexyl)benzamide], the inhibition at 10 µM turned out to be 98.4%, the inhibition at 30 µM stood at 94% and the negative-log IC50 (pIC50) is 7.19.

With `COc1c(C(C)(C)C)cc(CNC2(C(=O)NCc3cccc(C(F)(F)F)c3)CCCCC2)cc1C(C)(C)C` [Compound 71, 1-(3,5-di-tert-butyl-4-methoxybenzylamino)-N-(3-(trifluoromethyl)benzyl)cyclohexanecarboxamide], the inhibition at 10 µM stood at 77.3%, the inhibition at 30 µM stood at 81.1% and the pIC50 was 6.32.

Regarding `COc1c(C(C)(C)C)cc(C(=O)NC2(C(=O)NCc3cnc(C)cn3)CCCCC2)cc1C(C)(C)C` [Compound 88, 3,5-di-tert-butyl-4-methoxy-N-(1-((5-methylpyrazin-2-yl)methylcarbamoyl)cyclohexyl)benzamide], the inhibition at 10 µM amounted to 96.3%, the inhibition at 30 µM is 96.7% and the pIC50 is 7.85.

As for `CC(C)(C)c1cc(C(=O)NC2(C(=O)NCc3ccccc3)CCNCC2)cc(C(C)(C)C)n1` [Compound 64, N-(4-(benzylcarbamoyl)piperidin-4-yl)-2,6-di-tert-butylisonicotinamide], the inhibition at 10 µM turned out to be 69.5% and the inhibition at 30 µM was 104%.

Take `CNC(=O)C1(NC(=O)c2cc(C(C)(C)C)cc(C(C)(C)C)c2)CCCCC1` [Compound 35, 3,5-di-tert-butyl-N-(1-(methylcarbamoyl)cyclohexyl)benzamide]: the inhibition at 10 µM amounted to 92.5%, the inhibition at 30 µM came out at 98.6% and the pIC50 is 5.90.

Source of the values: patent publication US20090270394A1, “CYCLYLAMINE DERIVATIVES AS CALCIUM CHANNEL BLOCKERS” (priority 2008, published 2009).
